The results in this text go back to ChEMBL document CHEMBL1255359, “Mechanisms of macrolide resistance among Streptococcus pneumoniae isolates from Russia” (2008).

Holding throughout (type): functional
Experiment [1] relates to Streptococcus pneumoniae. Kind of experiment: Antibacterial activity against macrolide resistant and mef(E)-positive Streptococcus pneumoniae by broth dilution method. On the technique in general: Dilution methods test growth across graded concentrations, often in twofold steps.
Experiment [2] concerns Streptococcus pneumoniae. Briefly: Antibacterial activity against macrolide resistant and mef(I)-positive Streptococcus pneumoniae by broth dilution method.
The subject of experiment [3] is Streptococcus pneumoniae. Briefly: Antibacterial activity against macrolide resistant and mef-positive Streptococcus pneumoniae by broth dilution method.
Experiment [4] concerns Streptococcus pneumoniae. Kind of experiment: Antibacterial activity against inducible macrolide-lincosamide-streptogramin B resistant and erm(B)-positive Streptococcus pneumoniae by broth dilution method.
For experiment [5], the system named is Streptococcus pneumoniae. Kind of experiment: Antibacterial activity against constitutive macrolide-lincosamide-streptogramin B resistant and erm(B)-positive Streptococcus pneumoniae by broth dilution method.
For experiment [6], the system named is Streptococcus pneumoniae. Kind of experiment: Antibacterial activity against inducible macrolide-lincosamide-streptogramin B resistant erm(B) and mef(E)-positive Streptococcus pneumoniae by broth dilution method.
The test system of experiment [7] is Streptococcus pneumoniae. Kind of experiment: Antibacterial activity against constitutive macrolide-lincosamide-streptogramin B resistant erm(B) and mef(E)-positive Streptococcus pneumoniae by broth dilution method.

The structures appear in SMILES notation. Values after ≈ are worked out from the molar mass of the structure shown.

As to `CC[C@H]1OC(=O)[C@H](C)[C@@H](O[C@H]2C[C@@](C)(OC)[C@@H](O)[C@H](C)O2)[C@H](C)[C@@H](O[C@@H]2O[C@H](C)C[C@H](N(C)C)[C@H]2O)[C@](C)(O)C[C@@H](C)C(=O)[C@H](C)[C@@H](O)[C@]1(C)O` [ERYTHROMYCIN], the MIC with Streptococcus pneumoniae [1] is 1 µg/mL (≈ 1.36 µM); with Streptococcus pneumoniae [2], 2 µg/mL (≈ 2.73 µM); with Streptococcus pneumoniae [3], 8 µg/mL (≈ 10.9 µM); against Streptococcus pneumoniae [4] it was not below 2 µg/mL; against Streptococcus pneumoniae [5], not below 32 µg/mL; with Streptococcus pneumoniae [6], not below 32 µg/mL. In the experiment with Streptococcus pneumoniae [7], this compound gave an MIC not below 32 µg/mL.
Regarding `CCC[C@@H]1C[C@@H](C(=O)N[C@@H]([C@H]2O[C@H](SC)[C@H](O)[C@@H](O)[C@H]2O)[C@H](C)Cl)N(C)C1` [CLINDAMYCIN], the minimal inhibitory concentration (MIC) is 0.015 µg/mL (≈ 0.0353 µM) with Streptococcus pneumoniae [1]; 0.015 µg/mL (≈ 0.0353 µM) against Streptococcus pneumoniae [2]; 0.03 µg/mL (≈ 0.0706 µM) in the experiment with Streptococcus pneumoniae [3]; not below 2 µg/mL in the experiment on Streptococcus pneumoniae [4]; not below 32 µg/mL against Streptococcus pneumoniae [5]; not below 32 µg/mL against Streptococcus pneumoniae [6]. In the experiment with Streptococcus pneumoniae [7], the MIC is not below 8 µg/mL.

One may read the MIC as the lowest concentration that inhibits growth of the organism. Read a low MIC as inhibition by little substance.
